Read-outs that look alike come from different tables or passages of the source.
Biological target: Der p 1 (Dermatophagoides pteronyssinus (European house dust mite), UniProt P08176)
Assay: Der p 1 enzyme activity assay (FRET fluorogenic substrate)
Format: biochemical
[1] = threshold stated in text, read-out: Der p 1 IC50

Der p 1, sequence (P08176 99-320): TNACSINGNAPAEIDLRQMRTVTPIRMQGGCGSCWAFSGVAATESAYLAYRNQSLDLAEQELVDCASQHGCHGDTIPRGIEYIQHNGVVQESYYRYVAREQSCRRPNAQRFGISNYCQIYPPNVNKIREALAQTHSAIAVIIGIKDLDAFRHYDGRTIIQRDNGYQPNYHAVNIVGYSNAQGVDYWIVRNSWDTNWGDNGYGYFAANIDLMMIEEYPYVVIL

IC50 [1]	Structure (SMILES)	other results
< 20 nM	CC(C)[C@H](NC(=O)[C@H](C)NC(=O)[C@@H](NC(=O)c1ccccc1)C12C[C@H]3C[C@@H](C1)C[C@@H](C2)C3)C(=O)C(=O)NCc1ccccc1 [PVA-066]	
< 200 nM	CC(C)C(NC(=O)[C@H](C)NC(=O)[C@H](Cc1ccccc1)NC(=O)c1ccccc1)C(=O)C(=O)NCc1ccccn1 (some centres unmarked) [PVA-023]	
< 20 nM	Cc1ccccc1C[C@H](NC(=O)c1ccncc1)C(=O)N[C@@H](C)C(=O)N[C@H](C(=O)C(=O)NCc1ccccc1)C(C)C [PVA-151]	
< 2000 nM	CC(C)C(NC(=O)[C@H](C)NC(=O)[C@H](Cc1ccccc1)NC(=O)c1ccccc1)C(=O)C(=O)NCCN1CCCC1 (some centres unmarked) [PVA-025]	
< 200 nM	CC(C)[C@H](NC(=O)[C@H](C)NC(=O)[C@H](Cc1ccccc1)NC(=O)c1ccccc1)C(=O)C(=O)NCCN1CCN(C)CC1 [PVA-098]	
< 200 nM	CC(=O)Nc1cc(C(=O)N[C@@H](Cc2ccccc2)C(=O)N[C@@H](C)C(=O)N[C@H](C(=O)C(=O)NCc2ccccc2)C(C)C)ccn1 [PVA-060]	
< 20 nM	CC(C)[C@H](NC(=O)[C@H](C)NC(=O)[C@H](Cc1ccccc1)NC(=O)c1ccncc1)C(=O)C(=O)NCc1ccc(S(N)(=O)=O)cc1 [PVA-161]	
< 200 nM	CC(C)C(NC(=O)[C@H](C)NC(=O)[C@H](Cc1ccccc1)NC(=O)c1ccccc1)C(=O)C(=O)NCc1cccnc1 (some centres unmarked) [PVA-024]	
< 200 nM	CC(=O)Nc1ccc(C(=O)N[C@@H](Cc2ccccc2)C(=O)N[C@@H](C)C(=O)N[C@H](C(=O)C(=O)NCc2ccccc2)C(C)C)cn1 [PVA-059]	
< 20 nM	CC(C)C[C@H](NC(=O)[C@H](C)NC(=O)[C@H](Cc1ccccc1)NC(=O)c1ccccc1)C(=O)C(=O)NCc1ccccc1 [PVA-005]	
< 20 nM	COC(=O)c1cccc(CNC(=O)C(=O)[C@@H](NC(=O)[C@H](C)NC(=O)[C@H](Cc2ccccc2)NC(=O)c2ccccc2)C(C)C)c1 [PVA-080]	
< 200 nM	CC(C)[C@H](NC(=O)[C@H](C)NC(=O)[C@H](Cc1ccccc1)NC(=O)c1ccncc1)C(=O)C(=O)NCC1CCN(C)CC1 [PVA-170]	
< 20 nM	CC(C)[C@H](NC(=O)[C@H](C)NC(=O)[C@@H](NC(=O)c1cccc(Cl)c1)C(C)(C)C)C(=O)C(=O)NCc1ccccc1 [PVA-183]	
< 200 nM	C[C@H](NC(=O)[C@H](Cc1ccccc1)NC(=O)c1ccccc1)C(=O)NCC(=O)C(=O)NCc1ccccc1 [PVA-102]	
< 200 nM	CC(C)[C@H](NC(=O)[C@H](C)NC(=O)[C@H](Cc1ccccc1)NC(=O)c1ccccc1)C(=O)C(=O)NCCc1ccccc1 [PVA-010]	
< 200 nM	CC(C)[C@H](NC(=O)[C@H](C)NC(=O)[C@@H](Cc1ccc2ccccc2c1)NC(=O)c1ccccc1)C(=O)C(=O)NCc1ccccc1 [PVA-032]	
< 20 nM	CC(C)[C@H](NC(=O)[C@H](C)NC(=O)[C@@H](NC(=O)c1ccnc2ccccc12)C(C)(C)C)C(=O)C(=O)NCc1ccccc1 [PVA-072]	
< 200 nM	CC(C)[C@H](NC(=O)[C@H](C)NC(=O)[C@H](Cc1ccccc1)NC(=O)c1ccccc1)C(=O)C(=O)Nc1ccc(F)cc1 [PVA-011]	
< 200 nM	CC(C)[C@H](NC(=O)[C@H](C)NC(=O)[C@H](Cc1ccccc1)NC(=O)c1ccncc1)C(=O)C(=O)NC1CCC1 [PVA-174]	
< 200 nM	CC(C)[C@H](NC(=O)[C@H](C)NC(=O)[C@H](Cc1ccccc1)NC(=O)c1ccccc1)C(=O)C(=O)NCc1cccc(C(=O)O)c1 [PVA-081]	
< 20 nM	CC(C)[C@H](NC(=O)[C@H](C)NC(=O)[C@@H](NC(=O)c1ccccc1)C(C)(C)C)C(=O)C(=O)NCc1cccc(C(N)=O)c1 [PVA-155]	
< 200 nM	CC(C)[C@H](NC(=O)[C@H](C)NC(=O)[C@H](Cc1ccccc1)NC(=O)c1ccncc1)C(=O)C(=O)NC1CCCC1 [PVA-175]	
< 200 nM	CC(C)[C@H](NC(=O)[C@H](C)NC(=O)[C@@H](Cc1ccccc1)NC(=O)c1ccc(-c2ccccc2)cc1)C(=O)C(=O)NC1CCCCC1 [PVA-019]	
< 200 nM	CC(C)[C@H](NC(=O)[C@H](C)NC(=O)[C@@H](Cc1cccc(F)c1)NC(=O)c1ccccc1)C(=O)C(=O)NC1CCCCC1 [PVA-031]	
< 2000 nM	CCCCC(NC(=O)[C@H](C)NC(=O)[C@H](Cc1ccccc1)NC(=O)c1ccccc1)C(=O)C(=O)N1CCN(C)CC1 (some centres unmarked) [PVA-007]	
< 20 nM	CC(C)[C@H](NC(=O)[C@H](C)NC(=O)[C@@H](NC(=O)c1ccncc1)C(C)(C)C)C(=O)C(=O)NCc1ccccc1 [PVA-128]	

Continued, molecule first:

Structure (SMILES)	IC50 [1]	other results
CC(C)[C@H](NC(=O)[C@H](C)NC(=O)[C@@H](NC(=O)c1cc[nH]c(=O)c1)C(C)(C)C)C(=O)C(=O)NCc1ccccc1 [PVA-114]	< 200 nM	
CC(C)[C@H](NC(=O)[C@H](C)NC(=O)[C@H](Cc1ccccc1)NC(=O)c1ccc2ncsc2c1)C(=O)C(=O)NC1CCCCC1 [PVA-050]	< 200 nM	
CC(C)[C@H](NC(=O)[C@H](C)NC(=O)C1(NC(=O)c2ccccc2)CCCCC1)C(=O)C(=O)NC1CCCCC1 [PVA-091]	< 200 nM	
CC(=O)Nc1ccc(C(=O)N[C@H](C(=O)N[C@@H](C)C(=O)N[C@H](C(=O)C(=O)NCc2ccccc2)C(C)C)C(C)(C)C)cn1 [PVA-063]	< 200 nM	
CC(C)[C@H](NC(=O)[C@H](C)NC(=O)[C@@H](N1Cc2ccccc2C1=O)C(C)(C)C)C(=O)C(=O)NCc1ccccc1 [PVA-129]	< 20 nM	
CC(C)[C@H](NC(=O)[C@H](C)NC(=O)[C@H](Cc1ccccc1)NC(=O)c1ccccc1)C(=O)C(=O)N[C@@H](C)C(=O)N1CCN(C)CC1 [PVA-094]		IC50 (Der p 1 IC50): < 20 nM
CC(C)[C@H](NC(=O)[C@H](C)NC(=O)[C@@H](NC(=O)c1ccc(OCCN2CCCC2)cc1)C(C)(C)C)C(=O)C(=O)NC1CCCCC1 [PVA-076]	< 200 nM	
CC(C)[C@H](NC(=O)[C@H](C)NC(=O)[C@H](Cc1ccccc1)NC(=O)c1ccccc1)C(=O)C(=O)NCC(=O)N1CCN(C(C)C)CC1 [PVA-092]		IC50 (Der p 1 IC50): < 20 nM
CC(C)[C@H](NC(=O)[C@H](C)NC(=O)[C@@H](N1Cc2ccccc2C1=O)C(C)(C)C)C(=O)C(=O)NCc1ccc(C(N)=O)cc1 [PVA-207]	< 20 nM	
CC(C)[C@H](NC(=O)[C@H](C)NC(=O)[C@@H](NC(=O)c1ccc2ncsc2c1)C(C)(C)C)C(=O)C(=O)NCc1ccccc1 [PVA-057]	< 200 nM	
CC(C)[C@H](NC(=O)[C@H](C)NC(=O)[C@@H](N1Cc2ccccc2C1=O)C(C)(C)C)C(=O)C(=O)NCC(=O)N1CCc2ccccc2C1 [PVA-212]	< 20 nM	
CC(C)[C@H](NC(=O)[C@H](C)NC(=O)[C@@H](NC(=O)c1ccccc1)C(C)(C)C)C(=O)C(=O)N[C@H](C(=O)N1CCN(C)CC1)C(C)C [PVA-127]	< 200 nM	
CC(=O)Nc1cc(C(=O)N[C@H](C(=O)N[C@@H](C)C(=O)N[C@H](C(=O)C(=O)NC2CCCCC2)C(C)C)C(C)(C)C)ccn1 [PVA-062]	< 200 nM	
CC(C)[C@H](NC(=O)[C@H](C)NC(=O)[C@@H](NC(=O)c1cccc(C(=O)O)c1)C(C)(C)C)C(=O)C(=O)NCC(=O)N1CCN(C)CC1 [PVA-130]	< 20 nM	
CC(C)[C@H](NC(=O)[C@H](C)NC(=O)[C@@H](NC(=O)c1ccccc1C(F)(F)F)C(C)(C)C)C(=O)C(=O)NCc1ccccc1 [PVA-182]	< 20 nM	
CC(C)[C@H](NC(=O)[C@H](C)NC(=O)[C@@H](NC(=O)c1ccccc1)C(C)(C)C)C(=O)C(=O)NCC(=O)N1CCCCC1 [PVA-078]	< 20 nM	

Structure (SMILES)	IC50 [1]	other results
CC(C)[C@H](NC(=O)[C@H](C)NC(=O)[C@@H](NC(=O)c1cccc2[nH]ncc12)C(C)(C)C)C(=O)C(=O)NCc1ccccc1 [PVA-149]	< 20 nM	
CC(C)[C@H](NC(=O)[C@H](C)NC(=O)[C@@H](NC(=O)c1ccccc1)C(C)(C)C)C(=O)C(=O)NC1CCC1 [PVA-203]	< 200 nM	
CC(C)[C@H](NC(=O)[C@H](C)NC(=O)[C@@H](N1Cc2ccccc2C1=O)C(C)(C)C)C(=O)C(=O)NCc1ccc(S(N)(=O)=O)cc1 [PVA-206]	< 20 nM	
CCCC[C@H](NC(=O)[C@H](C)NC(=O)[C@@H](NC(=O)c1ccncc1)C(C)(C)C)C(=O)C(=O)NC1CCCCC1 [PVA-039]	< 20 nM	IC50 (Table 1, read-out: Der p 1 IC50): 6.3 nM
CC(C)[C@H](NC(=O)[C@H](C)NC(=O)[C@@H](N1Cc2ccccc2C1=O)C(C)(C)C)C(=O)C(=O)NC1CC1 [PVA-177]	< 20 nM	
CC(C)[C@H](NC(=O)[C@H](C)NC(=O)[C@@H](NC(=O)c1ccccc1)C(C)(C)C)C(=O)C(=O)NCc1cccc(C(=O)OC(C)(C)C)c1 [PVA-200]	< 200 nM	
CC(C)[C@H](NC(=O)[C@H](C)NC(=O)[C@@H](NC(=O)c1cncc2ccccc12)C(C)(C)C)C(=O)C(=O)NC1CCCCC1 [PVA-073]	< 20 nM	
CC(C)[C@H](NC(=O)[C@H](C)NC(=O)[C@@H](NC(=O)c1ccnc2ccccc12)C(C)(C)C)C(=O)C(=O)NCc1ccc(C(N)=O)cc1 [PVA-188]	< 20 nM	
CC(C)[C@H](NC(=O)[C@H](C)NC(=O)[C@@H](NC(=O)c1cccc(OCc2nccn2C)c1)C(C)(C)C)C(=O)C(=O)NC1CCCCC1 [PVA-075]	< 200 nM	
CC(C)[C@H](NC(=O)[C@H](C)NC(=O)[C@@H](NC(=O)c1ccccc1)C(C)(C)C)C(=O)C(=O)N[C@@H]1CCc2ccccc21 [PVA-109]	< 200 nM	
CC(C)[C@H](NC(=O)[C@H](C)NC(=O)[C@@H](NC(=O)c1ccnc2ccccc12)C(C)(C)C)C(=O)C(=O)NCc1ccc(S(N)(=O)=O)cc1 [PVA-185]	< 20 nM	
CC(C)[C@H](NC(=O)[C@H](C)NC(=O)[C@@H](NC(=O)c1ccccc1)C(C)(C)C)C(=O)C(=O)N[C@@H](C)c1ccccc1 [PVA-133]	< 200 nM	
CC(C)[C@H](NC(=O)[C@H](C)NC(=O)[C@H](Cc1ccccc1)NC(=O)c1ccnc(N2CCOCC2)c1)C(=O)C(=O)NC1CCCCC1 [PVA-069]	< 2000 nM	
CC(C)[C@H](NC(=O)[C@H](C)NC(=O)[C@@H](N1Cc2ccccc2C1=O)C(C)(C)C)C(=O)C(=O)NCc1ccc(N2CCN(C)CC2)nc1 [PVA-213]	< 20 nM	
CNC(=O)c1ccc(CNC(=O)C(=O)[C@@H](NC(=O)[C@H](C)NC(=O)[C@@H](NC(=O)c2ccccc2)C(C)(C)C)C(C)C)cc1 [PVA-196]	< 20 nM	
CC(C)[C@H](NC(=O)[C@H](C)NC(=O)[C@@H](NC(=O)C1CCN(C)CC1)C(C)(C)C)C(=O)C(=O)NC1CCCCC1 [PVA-089]	< 200 nM	
